In patent publication US12133878B2, “Pharmaceutical compositions having a selected release duration” (Foresee Pharmaceuticals Co., Ltd., priority 2017, dated 2024):
Where a name gives a salt, the structure may show the parent alone.

Assays:
[1] = for molecular weight of PLGA compared with blank control: both 4° C. and RT, after 12 months
Method: Poly(DL-lactide-co-glycolide) (PLGA) of an 85/15 ratio of lactide to glycolide (DLPLG85/15, IV: 0.28) with a lauryl ester end group was dissolved in N-methyl-2-pyrrolidone (NMP) to give a 50% solution by weight. […] The injectable compositions were filled into 1.2 mL polypropylene syringes with luer-lock tips. Then the pre-filled syringes were sealed using luer-lock caps. The capped syringes were packaged in a container and sealed in a plastic bag under vacuum and then stored at 4° C. and room temperature (˜22° C.) for up to 18 months. The injectable composition was sampled at 24 h, 1, 2, 3, 6, 12, and 18-month time points. Purity of leuprolide in the sample was determined by HPLC. Molecular weight of the polymer was determined by gel permeation chromatography (GPC) using polystyrene standards with known molecular weights.

[2] = In vitro release of leuprolide in PBS at pH 7.4 at 37° C. (HPLC); assay type: physicochemical; settings: for release of leuprolide completed: Example 5, FIG. 3, PLA 16,000 Dalton 60% in NMP, about 12% leuprolide, gamma 25 kGy
Method: The product is supplied in 2 separate syringes with the leuprolide acetate in one syringe and the polymer solution in the other. The two are mixed immediately prior to injection. The polymer solution contains a 50% 8515PLGA polymer solution in NMP. The molecular weight of the polymer is about 20k dalton. […] The leuprolide mesylate was prepared from leuprolide acetate by ion exchange lyophilization process and contains a small amount of acetate. The formulation was mixed and stored in a single syringe. Another formulation was made with LAMS using a PLA polymer with a molecular weight of 15k dalton (PLA-1) and a polydispersity index (PDI) of 1.8. This formulation was also mixed and stored in a single syringe. […] The release sample was taken at predefined time points and analyzed by HPLC.
The in vitro release of leuprolide was tested from these two formulations. The in vitro release test was performed in PBS at pH 7.4 at 37° C. and the release of leuprolide over time was measured by HPLC. Briefly, an aliquot of the formulation (about 100 mg) was injected into 3 mL phosphate buffer saline solution at pH 7.4 with 0.1% sodium azide at 37° C. The receiving fluid was replaced at predefined time points with fresh buffer solution, and the removed buffer solution diluted 2-fold with phosphate buffer at pH 7.4 was analyzed for drug concentration by HPLC. The amount released at each time point was calculated.
The in vitro release of leuprolide was tested from several kits of Eligard® 45 mg. These kits contain 1 syringe with leuprolide acetate (LAAc) and one syringe of polymer solution (PLGA8515 in NMP). PLGA8515 used here was prepared with hexanediol as an initiator and has a molar ratio of DL-lactide to Glycolide=85:15. The PLGA8515 polymer has one hydroxyl end group at both ends of the polymer chain. The two syringes are connected and the contents are mixed immediately prior to injection.
Formulations were made with leuprolide mesylate (LAMS(1.6)) in order to achieve the delivery of leuprolide for a period of 3 months. The leuprolide mesylate was prepared from leuprolide formate by salt exchange lyophilization process and contains a small amount of formic acid. […] The removed release media was analyzed by HPLC for leuprolide content.
The in vitro release of leuprolide was tested from these two formulations. The in vitro release test was performed in PBS at pH 7.4 at 37° C. and the release of leuprolide was measured by HPLC over time. […]
Formulations designed for a release duration of one month were made with a 50:50PLGA polymer (MW 50k, PDI 4.0) in NMP using LAMS with a methane sulfonic acid to leuprolide ratio of 1.6:1 and 2.0:1. The formulations were stored at 25° C. and the peptide purity and polymer molecular weight were measured over time. […]

molecular weight of PLGA decreased, comparing to blank control ([1]; 4° C., after 6 months) | release of leuprolide completed [2] | in vitro release lasts longer versus leuprolide mesylate ([2]; Example 5, same PLA/NMP solution) | molecular weight of PLGA compared with blank control [1] | leuprolide released ([2]; Example 6, FIG. 4, polymer syringe from the Eligard 45 mg kit, at 112 days) | Compound
more than 10% | ~240 days | more than 60 days | – | – | CCNC(=O)[C@@H]1CCCN1C(=O)[C@H](CCCNC(=N)N)NC(=O)[C@H](CC(C)C)NC(=O)[C@@H](CC(C)C)NC(=O)[C@H](Cc1ccc(O)cc1)NC(=O)[C@H](CO)NC(=O)[C@H](Cc1c[nH]c2ccccc12)NC(=O)[C@H](Cc1c[nH]cn1)NC(=O)[C@@H]1CCC(=O)N1 [leuprolide acetate, reference compound]
– | ~180 days | – | the same as that of the blank control | > 99 | leuprolide mesylate
– | – | – | the same as that of the blank control | – | CCNC(=O)[C@@H]1CCCN1C(=O)[C@H](CCCNC(=N)N)NC(=O)[C@H](CC(C)C)NC(=O)[C@@H](CC(C)C)NC(=O)[C@H](Cc1ccc(O)cc1)NC(=O)[C@H](CO)NC(=O)[C@H](Cc1c[nH]c2ccccc12)NC(=O)[C@H](Cc1c[nH]cn1)NC(=O)[C@@H]1CCC(=O)N1 [leuprolide hydrochloride]
